Test results taken from patent publication US20060240028A1, “Anti-nls substances and uses thereof in nuclear import inhibition” (priority 2002, published 2006).
No end group written: not given here.

Columns and labels:
[1] = tested on: VprN-mediated nuclear import; experiment: Nuclear import of FL-BSA-VprN in permeabilized HeLa cells, fluorescence microscopy; format: cell-based; conditions: 1 mg/ml WGA, 4 mM GTP-γ-S, Table 2 (not given)
Method: (§1) Nuclear import of rhodamine-labeled BSA-NLS conjugates (FL-BSA-NLS) was performed as described before [Adam (1992) id ibid.; Broder (1997) id ibid.]. Amounts of FL-BSA-NLS substrate for FL-BSA SV40 large T-Ag NLS was 3-5 μg/system and for the FL-BSA-VprN 25 μg/system. Controls included: 1 mg/ml Wheat Germ Agglutinin (WGA), 4 mM of GTP-γ-S, or 1000 units/ml of Hexokinase and 10 mM Glucose. Samples were observed and photographed using confocal fluorescent microscopy.

[2] = tested on: nuclear import of Vpr-GST fusion protein; experiment: Nuclear import of FL-Vpr-GST in digitonin permeabilized HeLa cells; format: cell-based; conditions: 5-fold excess unlabeled Vpr-GST
Method: as §1
The Vpr-GST fusion protein eluted from the Glutathione-Agarose resin was concentrated by VivaScience concentrators (MWCO 30,000) to a final concentration of 2.5-3.0 mg/ml, dialyzed for 2-3 hours against 1×PBS at 4° C. and labeled with rhodamine-maleimide Molecular Probes) according to manufacturer's instructions. Following 2 hours of incubation at room temperature with rotation, the labeled Vpr-GST fusion protein (FL-Vpr-GST) was purified using Sephadex G-25 fine (Pharmacia). The FL-Vpr-GST was then concentrated again using VivaScience concentrators (MWCO 30,000) and stored at −20° C.

[3] = tested on: interaction between anti-VprN scFv antibodies and surface-bound BSA-VprN conjugate; experiment: Competition ELISA: inhibition of anti-VprN scFv binding to surface-bound BSA-VprN by soluble ligands; parameters: species or system HIV-1; conditions: for inhibition of binding of the three antibodies to VprN-BSA by soluble ligand: Ab1, Ab2, Ab3
Method: (§2) The various ELISA assays used in the present work were carried out as follows: MaxiSorb plates (NUNC) were covered overnight with 25-100 μg/ml of the antigen (in Carbonate Buffer 0.05M Na2CO3/0.05M NaHCOs, pH9.6) at 4° C. On the next day, the plates were washed three times with 1×PBS and blocked with 2% BSA in 1×PBS (for antibodies) or 2% Skim Milk (DIFCO) in 1×PBS (for all other molecules) for 2 hours at 37° C. The plates were then washed three times with 1×PBS, and the appropriate ligand (in blocking solution) was added and incubated for 2 hours at 37° C. The plates were then washed three times with 1×PBS and the following detecting agents were added for detecting the antigen-ligand complexes: Avidin-POD (Roche Diagnostics), for biotin labeled molecules (1 unit/ml); anti-M13 monoclonal antibody (Amersham Pharmacia, 1:5000), for the bound phages; and a mix of mouse anti-myc antibody (Sigma, 1:1000) with anti-mouse-HRP antibody (Sigma, 1:2000) for the scFv antibodies. Each detecting agent was dissolved in the appropriate blocking solution (see above). Following incubation for 1 hour at 37° C. with the detecting agent, the plates were washed three times with 1×PBS and the appropriate substrate was added, according to manufacturer instructions.

[4] = tested on: binding of anti-VprN scFv antibodies to Vpr-GST; experiment: Competition ELISA: inhibition of anti-VprN scFv binding to surface-bound Vpr-GST; parameters: species or system HIV-1; conditions: for inhibition of binding of all three antibodies to Vpr-GST by added ligand: Ab1, Ab2, Ab3
Method: as §2

[5] = tested on: VprN-BSA conjugate (N-terminal domain of Vpr, amino acids 17-34); experiment: ELISA binding to surface-bound BSA-VprN conjugate; parameters: species or system HIV-1; conditions: FIG. 2
Method: Panning of the human scFv antibody phage display library [Harrison, J. L. et al. (1996) Methods in Enzymology 267, 83-109; Nissim, A. et al. (1994) EMBO J 13, 692-698] was conducted as follows. Two immunotubes (5 ml, NUNC) were incubated in parallel, with rotation at room temperature overnight, one containing the BSA-VprN conjugate and the other one containing only BSA, both in 0.1 mg/ml carbonate buffer (0.05M Na2CO3/0.05M NaHCO3, pH9.6). Following incubation, the tube with the surface attached BSA-VprN conjugates was washed three times with 1× PBS and then incubated for two hours at 37° C. with 2% (w/v) skim milk (DIFCO) in 1×PBS (2% MPBS). After three washes with 1× PBS, the scFv phage library (4 ml in 1% MPBS) was added and the tube containing the phage particles was incubated for 30 min with, and for 1.5 hours without rotation, at room temperature. The supernatant was then removed and the tube was washed ten times first with 1×PBS containing 0.05% Tween 20 and then with 1×PBS only. For elution of bound phages, 1 ml of 0.1M triethylamine was added, incubated for 10 min at room temperature with rotation, and the triethylamine solution containing the eluted phages collected and mixed with 0.5 ml of 1M Tris-HCl, pH7.4. […]

[6] = tested on: Tat-ARM mediated nuclear import; experiment: Nuclear import of FL-BSA-Tat conjugates in HeLa cells; format: cell-based; conditions: WGA 1 mg/ml, peptide/FL-BSA-Tat 20/1
[7] = molecular target: anti-VprN scFv antibody Ab1; experiment: competition ELISA: free VprN peptide against Ab1 binding to coated BSA-VprN
BSA-SV40 NLS conjugate = molecular target: T1, BSA-SV40 NLS conjugate (SV40, rhodamine- or biotin-labelled in the nuclear import assays; cysteine added at the C-terminus; peptide chemically conjugated to BSA); experiment: peptide ELISA on coated BSA-NLS conjugates (FIG. 2A)
T1 construct: also called BSA-SV40 large T-antigen NLS; SV40 NLS-BSA conjugate
Method: (§3) The various ELISA assays used in the present work were carried out as follows: MaxiSorb plates (NUNC) were covered overnight with 25-100 μg/ml of the antigen (in Carbonate Buffer 0.05M Na₂CO₃/0.05M NaHCOs, pH9.6) at 4° C. On the next day, the plates were washed three times with 1×PBS and blocked with 2% BSA in 1×PBS (for antibodies) or 2% Skim Milk (DIFCO) in 1×PBS (for all other molecules) for 2 hours at 37° C. The plates were then washed three times with 1×PBS, and the appropriate ligand (in blocking solution) was added and incubated for 2 hours at 37° C. The plates were then washed three times with 1×PBS and the following detecting agents were added for detecting the antigen-ligand complexes: Avidin-POD (Roche Diagnostics), for biotin labeled molecules (1 unit/ml); anti-M13 monoclonal antibody (Amersham Pharmacia, 1:5000), for the bound phages; and a mix of mouse anti-myc antibody (Sigma, 1:1000) with anti-mouse-HRP antibody (Sigma, 1:2000) for the scFv antibodies. Each detecting agent was dissolved in the appropriate blocking solution (see above). Following incubation for 1 hour at 37° C. with the detecting agent, the plates were washed three times with 1×PBS and the appropriate substrate was added, according to manufacturer instructions.

BSA-VprN conjugate = molecular target: T2, BSA-VprN conjugate (HIV-1, rhodamine- or biotin-labelled in the nuclear import assays; cysteine added at the N-terminus; peptide chemically conjugated to BSA); experiment: peptide ELISA on coated BSA-NLS conjugates (FIGS. 2A and 2B)
T2 construct: The peptide is printed with superscripts 16 and 34, the text calls it residues 17-34; also called VprN-BSA conjugate; VprN-BSA
Method: as §3

Q: With Nc1nc2c(ncn2[C@@H]2O[C@H](COP(=O)(O)OP(=O)(O)OP(O)(O)=S)[C@@H](O)[C@H]2O)c(=O)[nH]1 [GTP-γ-S] as the molecule, how does the “inhibition of nuclear import of BSA-VprN conjugate by control agents” value [1] read?
A: partially inhibited

Q: What about the “inhibition of nuclear import of Vpr-GST by control agents” value [2] of the same molecule?
A: partially inhibited

Q: For “SV40 NLS peptide: PKKKRKVC (SEQ. ID. NO.7), the SV40 large T-antigen NLS (SV40-NLS with extra C)”, which “inhibition of binding of the three antibodies to VprN-BSA by soluble ligand” value (“inhibition of binding … by soluble ligand” for short) [3] is on record?
A: No or low inhibition

Q: Which “inhibition of binding … by soluble ligand” value [3] does the source give for VprN mutant (CNEATLELLPELKNPAVRHF) here?
A: No or low inhibition

Q: What about the “inhibition of binding of all three antibodies to Vpr-GST by added ligand” value [4] of the same molecule?
A: no or little inhibition

Q: “VprN-BSA: BSA molecule bearing about 3-4 covalently attached VprN peptides” was tested. Which “inhibition of binding … by soluble ligand” value [3] did it give?
A: inhibited

Q: And the “concentration of soluble ligand inhibiting Ab1 binding to its antigen by 90%” value ([3]; Ab1, surface-bound VprN-BSA)?
A: about 5 μM

Q: And the “fold lower concentration than VprN peptide required to block antibody binding to Vpr-GST” value [4]?
A: about ten

Q: And the “inhibition of binding of all three antibodies to Vpr-GST by added ligand” value [4]?
A: strongly inhibited

Q: With “peptide a: synthetic peptide of the CDR3 random insert of phage A, ISSD (SEQ. ID. NO. 4) (AFMKSGKRFIH; CDR3 random insert sequence of Ab2)” as the molecule, how does the “binding of anti-VprN peptide to VprN-BSA conjugate” value [5] read?
A: failed to recognize

Q: What does the source list for wheat germ agglutinin [WGA]?
A: inhibition of nuclear import of BSA-VprN conjugate by control agents [1]: inhibited; inhibition of nuclear import of Vpr-GST by control agents [2]: inhibited; inhibition of nuclear import of FL-BSA Tat ARM conjugates by control agents [6]: inhibited

B1: VprN peptide (free synthetic peptide) (peptide)
peptide: CNEWTLELLEELKNEAVRHF
modifications: cysteine added at the N-terminus
Q: B1 was tested. Which concentration giving 90% inhibition [7] did it give?
A: > 15 µM

B2: synthetic anti-VprN peptide a (CDR3 random insert of phage A) (peptide)
peptide: ISSD
modifications: not fully specified
Q: Does B2 bind (BSA-SV40 NLS conjugate)?
A: no binding

Q: Does B2 bind (BSA-VprN conjugate)?
A: no binding

B3: synthetic anti-VprN peptide c (CDR3 random insert of phage C) (peptide)
peptide: HFHYKGKLQTF
modifications: not fully specified
Q: What does the source list for B3?
A: binding result (BSA-SV40 NLS conjugate): no binding; binding result (BSA-VprN conjugate): no binding
